Positions count from the first letter of the chain named. pIC50: −log10 of the molar value. Several values for one entry are separate records, joined by “and”; a condition that tells them apart may be missing. Equal entries are not always repeated. Where two headings read alike, the source gives them in different places.
How the values were obtained:
CYP1A1 = molecular target: T1, CYP1A1 (Homo sapiens, UniProt P04798); test: In cell activity assay for CYP1A1 (7-ethoxyresorufin conversion, HEK293 T-Rex cells); settings: for % Enzyme Activity: CYP1A1, dark; for SI (1B1:1A1): ratio of IC50 CYP1A1 to CYP1B1, for complexes 4–6 the IC50 (light) values were used; for pIC50: REE
T1 sequence (P04798 1-512): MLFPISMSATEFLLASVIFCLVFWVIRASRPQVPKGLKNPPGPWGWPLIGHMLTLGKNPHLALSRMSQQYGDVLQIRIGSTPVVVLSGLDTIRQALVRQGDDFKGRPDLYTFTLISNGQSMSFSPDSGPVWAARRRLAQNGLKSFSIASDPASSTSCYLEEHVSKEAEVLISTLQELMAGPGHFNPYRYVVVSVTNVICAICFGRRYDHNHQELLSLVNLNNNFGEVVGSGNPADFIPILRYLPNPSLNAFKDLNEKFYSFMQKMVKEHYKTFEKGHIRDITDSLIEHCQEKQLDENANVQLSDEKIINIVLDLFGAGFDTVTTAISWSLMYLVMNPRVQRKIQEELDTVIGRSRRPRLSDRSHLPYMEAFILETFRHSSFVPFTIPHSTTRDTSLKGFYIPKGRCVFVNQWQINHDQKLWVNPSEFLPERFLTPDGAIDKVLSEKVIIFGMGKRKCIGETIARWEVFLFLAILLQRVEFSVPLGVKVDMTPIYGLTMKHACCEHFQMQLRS
Text: A stable HEK cell line was created with CYP1B1 expression under the control of tetracycline to facilitate regulated and titratable expression (see the Methods section for more details). A cell line was also created for CYP1A1 as a counter screen to evaluate selectivity. […] The fluorogenic substrate, 7-ethoxyresorufin (REE), is a validated substrate for both CYPs and was used in both assays. Cytochrome P450 oxidoreductase (POR) is the required reductase partner for CYPs, and was also overexpressed in these systems to improve catalytic efficiency and the resulting signal for the assay.
Both the CYP and POR expression was under the control of the TetO2 inducible CMV promoter[26].
Cell lines were generated in the HEK293 T-Rex cell line. Following transfection, cells were selected with 500 μg/mL Zeocin, and 7.5 μg/mL Blasticidin to create a stable pool. Inducible expression of CYP and POR was confirmed by immunoblot. […] The lines were maintained with 250 μg/mL Zeocin and 7.5 μg/mL Blasticidin to ensure continued selective pressure.
(§1) Cell lines were seeded onto Geltrex coated 96-well plates at 40,000 cells/well, and grown overnight in DMEM media containing 1 μg/mL tetracycline. The media was then replaced with Opti-MEM supplemented with 2% FBS and 1 μg/mL tetracycline. Compounds were serially diluted in Opti-MEM supplemented with 2% FBS and 1 μg/mL tetracycline and an equal volume of compound added to the cells (n = 3). Following a 1 h incubation, resorufin ethyl ether (REE; for CYP1B1 and 1A1) or dibenzylfluorescein (DBF; for 19A1) was added to the cells for a total concentration of 5 μM for REE and 1 μM for DBF. […] Dose–response curves were generated in Prism and normalized using the no-compound control (set as 100% activity) and the no-cell control (set as 0% activity; this value in the raw data reflects the background fluorescence of the dye alone).
For the light-activated compounds, the experiment was modified as follows: Cells were seeded and grown overnight as described above. Media was replaced with L-15 containing 1 μg/mL tetracycline; L-15 media was used in place of opti-MEM™ to maintain CO2 outside the incubator, and to prevent cellular damage from light. Compounds were serially diluted in L-15 with 1 μg/mL tetracycline and added to the cells followed by a 1 h incubation. […] REE or DBF was added as described above.

CYP1B1 F134L = molecular target: T2, CYP1B1 F134L (Homo sapiens, UniProt Q16678, F134L); test: In cell CYP1B1 activity assay, F134L variant; settings: for logSI F134L: log of the ratio of IC50 values mutant vs WT (Fig. 3c)
T2 sequence (Q16678 1-543 F134L): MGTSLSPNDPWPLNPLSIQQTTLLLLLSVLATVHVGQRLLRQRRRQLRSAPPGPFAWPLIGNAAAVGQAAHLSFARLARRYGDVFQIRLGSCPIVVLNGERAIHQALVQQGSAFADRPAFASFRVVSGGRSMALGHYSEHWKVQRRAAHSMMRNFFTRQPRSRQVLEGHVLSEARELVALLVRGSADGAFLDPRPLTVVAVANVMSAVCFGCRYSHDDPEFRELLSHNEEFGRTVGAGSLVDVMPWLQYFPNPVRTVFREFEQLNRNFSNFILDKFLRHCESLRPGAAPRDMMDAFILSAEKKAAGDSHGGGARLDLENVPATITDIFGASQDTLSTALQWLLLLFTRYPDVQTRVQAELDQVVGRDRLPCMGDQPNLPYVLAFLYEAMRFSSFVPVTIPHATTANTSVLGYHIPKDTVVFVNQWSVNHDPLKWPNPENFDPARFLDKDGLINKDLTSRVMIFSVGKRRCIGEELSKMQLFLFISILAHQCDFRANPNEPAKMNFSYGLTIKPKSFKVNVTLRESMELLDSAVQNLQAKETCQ
Text: (§2) Site directed mutagenesis was used to probe the importance of specific active-site contacts identified through the structural assessment (Fig. 3a, b) and simulations. In all cases, conservative mutations were made to maintain polar or hydrophobic character and approximate size. The aromatic residues that frame the inhibitor binding site, Phe143 and Phe231, were mutated to Leu to determine the importance of the π interactions. In addition, the Ser127 residue, located in the upper corner of the active site on the B-C loop, was chosen for mutation based on the simulations. This amino acid transiently contacts the inhibitors, but also forms a hydrogen bond with Asp326 of the I-helix, and thus may impact the position of this helix with regards to the B-C loop. […] Rather than directly mutating these residues in the I-helix, neighboring residues Gln332 and Asp333 were targeted, with the hope of interrupting amino acid interactions that position the helix within the active site.
(§3) The ratio of IC50 values for the WT vs. the mutant are shown in Fig. 3c and reflects the importance of the specific contact; the log of the value is used to aid in visualization.
as §1

CYP1B1 D333N = molecular target: T3, CYP1B1 D333N (Homo sapiens, UniProt Q16678, D333N); test: In cell CYP1B1 activity assay, D333N variant; settings: for logSI D333N: log of the ratio of IC50 values mutant vs WT (Fig. 3c)
T3 sequence (Q16678 1-543 D333N): T2 sequence (Q16678 1-543 F134L) with L134F, D333N
Text: as §2, §3, §1

[1] = Stability of compounds in mouse liver microsomes; settings: for Remaining, % (NCF=60min): mouse liver microsomes, no co-factor (no NADPH); for CLint scaled / Remaining, % (T=60min) / half-life / microsomal CLint: mouse, liver microsomes
[2] = type: physicochemical
Text: Liver Weight Blood Flow Protein
(g/kg Body Weight) (mL/min/kg) (mg/g liver
Supplementary Table 7. Quantum yields of photosubstitution in different solvents.
Compound Φ(PS) 5% DMSO in H2Oa Φ(PS) Opti-MEMa Φ(PS) CH3OH […]
a Quantum yield for photosubstitution, ΦPS, in 5% DMSO in H2O and Opti-MEM, calculated by optical approach
(Fig. S8-10). b ΦPS in 5% DMSO in H2O, determined by HPLC approach. HPLC was used due to overlap in absorbance profiles for 6 and its photochemical product (Fig. S7).
Supplementary Table 8. Lipinski’s rule of five. […]
a log P was calculated by taking the logarithm of the ratio of the MLCT absorbance of each complex (4-6) in octanol to the corresponding absorbance in H2O.
1. Lameijer, L. N. et al. A Red-Light-Activated Ruthenium-Caged NAMPT Inhibitor Remains Phototoxic in Hypoxic Cancer Cells. Angew. Chem. Int. Ed. Engl. 56, 11549-11553,

[3] = Kinetic solubility by UV/Vis; type: physicochemical; settings: Opti-MEM with 2% fetal bovine serum, room temperature, 3 hours; for Kinetic solubility C1: replicate 1; for Kinetic solubility C2: replicate 2; for Kinetic solubility C3: replicate 3
Protocol: Kinetic solubility was measured by UV/Vis. In this experiment, 14 μL of 10 mM DMSO stocks of complexes 4–6 were diluted in 700 μL of Opti-MEM™ with 2% fet al bovine serum and kept at room temperature for 3 hours. The solutions were then filtered using syringe-driven filters (FV12S) and concentrations were measured by UV/vis absorbance in a 96-well plate in triplicate. […]
4. Simulate in the NPT ensemble using a Berendsen thermostat and a Berendsen barostat with: […]
5. Simulate in the NPT ensemble using a Berendsen thermostat and a Berendsen barostat with: […]
6. Simulate in the NPT ensemble using a Berendsen thermostat and a Berendsen barostat with: […]

[4] = read-out: IC50 CYP1A1 Dark, Dark, n = 3
[5] = read-out: IC50 CYP1A1 Light, Light: 660 nm, 58.7 J/cm^2

COc1ccc(/C=C/c2ccncn2)c(OC)c1 [Compound 2]
% Enzyme Activity (CYP1A1; Log Conc 0.045757): 97.5755% and 125.129% and 102.858% | % Enzyme Activity (CYP1A1; Log Conc 0.522879): 79.4229% and 93.0687% and 81.8125% | % Enzyme Activity (CYP1A1; Log Conc 1): 15.2494% and 25.1537% and 27.5852% | % Enzyme Activity (CYP1A1; Log Conc -0.43136): 110.341% and 133.598% and 109.681% | % Enzyme Activity (CYP1A1; Log Conc -0.90849): 118.484% and 126.806% and 121.555% | % Enzyme Activity (CYP1A1; Log Conc -1.38561): 117.981% and 113.967% and 112.29% | % Enzyme Activity (CYP1A1; Log Conc -1.86273): 107.668% and 117.038% and 124.375% | % Enzyme Activity (CYP1A1; Log Conc -2.33985): 98.3615% and 101.034% and 100.604% | SI (1B1:1A1) (CYP1A1): 175 | pIC50 (CYP1B1 F134L): 6.62 | Ratio IC50 (mutant)/ IC50 (WT), F134L (CYP1B1 F134L): 3 | logSI F134L (CYP1B1 F134L): 0.5 | pIC50 (CYP1B1 D333N): 5.30 | Ratio IC50 (mutant)/ IC50 (WT), D333N (CYP1B1 D333N): 66 | logSI D333N (CYP1B1 D333N): 1.8 | Remaining, % (NCF=60min) [1]: 111.5% | CLint scaled [1]: 3620 mL/min/kg | Remaining, % (T=60min) [1]: 0.1% | half-life [1]: 1.51 min | microsomal CLint [1]: 915 µL/min/mg

COc1ccc(/C=C/c2cc[n+]([Ru-4]345([n+]6ccccc6-c6cccc([n+]63)-c3cccc[n+]34)[n+]3c(cc(C(=O)[O-])c4ccccc43)-c3cc(C(=O)[O-])c4ccccc4[n+]35)cn2)c(OC)c1 [Compound 5]
impact on CYP1A1 (CYP1A1; at concentrations ≥10 μM (so in the source)): no impact | SI (1B1:1A1) (CYP1A1): 460 | pIC50 (CYP1A1; [4]): 4.39 | pIC50 (CYP1A1; [5]): 5.11 | log P [2]: -0.5 | Kinetic solubility C average [3]: 112.2 µM | Kinetic solubility C1 [3]: 113.3 µM | Kinetic solubility C2 [3]: 110.0 µM | Kinetic solubility C3 [3]: 113.0 µM

COc1cc(/C=C/c2ccc(OC)cc2OC)cc(OC)c1 [Compound 1, reference compound]
% Enzyme Activity (CYP1A1; Log Conc 0.045757): 58.9151% and 62.8214% and 61.5139% | % Enzyme Activity (CYP1A1; Log Conc 0.522879): 20.9441% and 25.477% and 27.5679% | % Enzyme Activity (CYP1A1; Log Conc 1): 2.088% and 2.407% and 5.1678% | % Enzyme Activity (CYP1A1; Log Conc -0.43136): 94.4495% and 93.088% and 89.9544% | % Enzyme Activity (CYP1A1; Log Conc -0.90849): 109.334% and 103.31% and 104.553% | % Enzyme Activity (CYP1A1; Log Conc -1.38561): 108.032% and 102.127% and 103.391% | % Enzyme Activity (CYP1A1; Log Conc -1.86273): 103.764% and 105.887% and 103.748% | % Enzyme Activity (CYP1A1; Log Conc -2.33985): 105.601% and 99.1121% and 95.2869% | logSI F134L (CYP1B1 F134L): 1 | logSI D333N (CYP1B1 D333N): 2

COc1ccc(/C=C/c2cc[n+]([Ru-4]345([n+]6ccccc6-c6cccc([n+]63)-c3cccc[n+]34)[n+]3c(cc(C(=O)[O-])c4ccccc43)-c3cc(C(=O)[O-])c4ccccc4[n+]35)cc2)c(OC)c1 [Compound 6]
% Enzyme Activity (CYP1A1; Log Conc 0.39794): 91.0522% and 92.8898% | % Enzyme Activity (CYP1A1; Log Conc 1): 101.782% and 110.804% | % Enzyme Activity (CYP1A1; Log Conc -0.20412): 95.4892% and 97.456% | % Enzyme Activity (CYP1A1; Log Conc -0.80618): 104.418% and 113.985% | % Enzyme Activity (CYP1A1; Log Conc -1.40824): 109.608% and 108.283% | % Enzyme Activity (CYP1A1; Log Conc -2.0103): 108.509% and 109.086% | % Enzyme Activity (CYP1A1; Log Conc -2.61236): 100.346% and 103.098% | % Enzyme Activity (CYP1A1; Log Conc -3.21442): 102.096% and 97.9039% | SI (1B1:1A1) (CYP1A1): >100,000 | pIC50 (CYP1A1; [4]): < 4.52 | pIC50 (CYP1A1; [5]): < 4.52 | log P [2]: 0.2 | Kinetic solubility C average [3]: 36.9 µM | Kinetic solubility C1 [3]: 33.9 µM | Kinetic solubility C2 [3]: 38.5 µM | Kinetic solubility C3 [3]: 38.2 µM

COc1ccc(C=Cc2ccncc2)c(OC)c1 [Compound 3]
% Enzyme Activity (CYP1A1; Log Conc 0.045757): 84.2841% and 102.432% and 105% | % Enzyme Activity (CYP1A1; Log Conc 0.522879): 59.4676% and 67.9492% and 76.5686% | % Enzyme Activity (CYP1A1; Log Conc 1): 14.8056% and 20.3883% and 24.2847% | % Enzyme Activity (CYP1A1; Log Conc 1.47712): 0.5263% and 0.2508% and 0.3665% | % Enzyme Activity (CYP1A1; Log Conc -0.43136): 103.457% and 112.898% and 125.706% | % Enzyme Activity (CYP1A1; Log Conc -0.90849): 103.209% and 120.806% and 117.825% | % Enzyme Activity (CYP1A1; Log Conc -1.38561): 95.9953% and 108.125% and 129.481% | % Enzyme Activity (CYP1A1; Log Conc -1.86273): 106.428% and 95.389% and 98.1832% | logSI F134L (CYP1B1 F134L): 1.7 | logSI D333N (CYP1B1 D333N): 3.4 | Remaining, % (NCF=60min) [1]: 137.9% | CLint scaled [1]: 1900 mL/min/kg | Remaining, % (T=60min) [1]: 0.1% | half-life [1]: 2.89 min | microsomal CLint [1]: 480 µL/min/mg
